Test [1] concerns the target GDP-bound NRAS wild-type protein (Homo sapiens, UniProt P01111). Nature of the test: Binding to NRAS by surface plasmon resonance (SPR), KD and KD ratio to KRAS. Particulars: ratio of the KD value with respect to GDP-bound NRAS wild-type protein to the KD value with respect to KRAS. The method, boiled down: (§1)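 GDP-loaded biotinylated Avi-tag RAS proteins (E. coli-expressed) captured on a Biotin CAPture chip at ~100–300 RU; single-cycle kinetics at 30°C, 100 µL/min, 75 s injections of rising compound concentrations. HBS pH 7.4 running buffer with 1 mM DTT, 10 mM MgCl2, 10 µM GDP, 4% DMSO. KD from 1:1 binding fit.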
Background: SPR reads the build-up and loss of mass on a sensor chip optically.

Test [2] concerns the target HRAS wild-type protein (Homo sapiens, UniProt P01112). Nature of the test: Binding to HRAS by surface plasmon resonance (SPR), KD and KD ratio to KRAS. The following applies: ratio of the KD value with respect to HRAS wild-type protein to the KD value with respect to KRAS. The method, boiled down: as §1
In test [3] the test system is human lung cancer strain NCI-H441. Format: cell-based. In a few lines: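 Readout: […] after the ATP-based reagent. Compound: serial dilutions in dimethyl sulfoxide.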

Chain of GDP-bound NRAS wild-type protein (P01111 whole entry): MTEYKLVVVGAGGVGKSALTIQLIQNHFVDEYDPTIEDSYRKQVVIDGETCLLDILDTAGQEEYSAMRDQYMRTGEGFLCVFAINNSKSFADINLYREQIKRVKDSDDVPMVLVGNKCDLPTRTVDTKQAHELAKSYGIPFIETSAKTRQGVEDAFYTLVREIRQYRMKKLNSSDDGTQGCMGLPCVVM
Chain of HRAS wild-type protein (P01112 whole entry): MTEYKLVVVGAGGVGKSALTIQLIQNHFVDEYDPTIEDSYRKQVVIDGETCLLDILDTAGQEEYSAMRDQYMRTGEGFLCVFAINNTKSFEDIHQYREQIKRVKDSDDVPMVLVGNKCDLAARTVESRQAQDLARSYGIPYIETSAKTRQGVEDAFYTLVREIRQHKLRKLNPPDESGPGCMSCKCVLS

Regarding `C=CCN1CC(=O)N(C)[C@H]2C/C=C\CCN(C2=O)[C@@H](Cc2ccc(C(F)(F)F)cc2)C(=O)N(C)CC(=O)N[C@@H](CCc2cc(F)c(C(F)(F)F)c(F)c2)C(=O)N2C[C@H](OCC)C[C@H]2C(=O)NC2(CC(C)(C)C2)C(=O)N(C)[C@@H](C2CCCC2)C(=O)N(C)[C@H](C(=O)N(C)C)CC(=O)N(C)[C@@H](CCC)C(=O)N[C@@H]([C@@H](C)CC)C1=O` [PP2102], the “NRAS /KRAS” value in test [1] was “A (a compound having 10 or more and less than 20 is denoted as A)”. In addition, in test [2], the “HRAS /KRAS” value is “A (a compound having 10 or more and less than 20 is denoted as A)”. This compound gave a concentration for half-maximal inhibition (IC50) in test [3] of 7 nM.
Take `C#CCN1CC(=O)N(C)[C@H]2C/C=C\CCN(C2=O)[C@@H](Cc2ccc(C(F)(F)F)cc2)C(=O)N(C)CC(=O)N[C@@H](CCc2cc(F)c(C(F)(F)F)c(F)c2)C(=O)N2C[C@H](OCC)C[C@H]2C(=O)NC2(CC(C)(C)C2)C(=O)N(C)[C@@H](C2CCCC2)C(=O)N(C)[C@H](C(=O)N(C)C)CC(=O)N(C)[C@@H](CCC)C(=O)N[C@@H]([C@@H](C)CC)C1=O` [PP2103]: the “NRAS /KRAS” value in test [1] was “A (a compound having 10 or more and less than 20 is denoted as A)”. Besides, the “HRAS /KRAS” value in test [2] was “A (a compound having 10 or more and less than 20 is denoted as A)”. This compound yielded an IC50 in test [3] of 4.3 nM.
For `CCC[C@H]1C(=O)N[C@@H]([C@@H](C)CC)C(=O)N(C2CC2)CC(=O)N(C)[C@H]2C/C=C\CCN(C2=O)[C@@H](Cc2ccc(C(F)(F)F)cc2)C(=O)N(C)CC(=O)N[C@@H](CCc2ccc(C(F)(F)F)c(OC)c2)C(=O)N2C[C@H](OCC)C[C@H]2C(=O)NC2(CC(C)(C)C2)C(=O)N(C)[C@@H](C2CCCC2)C(=O)N(C)[C@H](C(=O)N(C)C)CC(=O)N1C` [PP2105], the “NRAS /KRAS” value in test [1] is “A (a compound having 10 or more and less than 20 is denoted as A)”. The “HRAS /KRAS” value in test [2] was “A (a compound having 10 or more and less than 20 is denoted as A)”. Moreover, 10.4 nM corresponded to half-maximal inhibition in test [3] (IC50).
As to `C=CCN1CC(=O)N(C)[C@H]2C/C=C\CCN(C2=O)[C@@H](Cc2ccc(C(F)(F)F)cc2)C(=O)N(C)CC(=O)N[C@@H](CCc2ccc(C(F)(F)F)c(OC)c2)C(=O)N2C[C@H](OCC)C[C@H]2C(=O)NC2(CC(C)(C)C2)C(=O)N(C)[C@@H](C2CCCC2)C(=O)N(C)[C@H](C(=O)N(C)C)CC(=O)N(C)[C@@H](CCC)C(=O)N[C@@H]([C@@H](C)CC)C1=O` [PP2106], the “NRAS /KRAS” value in test [1] is “A (a compound having 10 or more and less than 20 is denoted as A)”. Also, in test [2], the “HRAS /KRAS” value was “A (a compound having 10 or more and less than 20 is denoted as A)”. In test [3], this compound had an IC50 of 6.1 nM.
For `C#CCN1CC(=O)N(C)[C@H]2C/C=C\CCN(C2=O)[C@@H](Cc2ccc(C(F)(F)F)cc2)C(=O)N(C)CC(=O)N[C@@H](CCc2ccc(C(F)(F)F)c(OC)c2)C(=O)N2C[C@H](OCC)C[C@H]2C(=O)NC2(CC(C)(C)C2)C(=O)N(C)[C@@H](C2CCCC2)C(=O)N(C)[C@H](C(=O)N(C)C)CC(=O)N(C)[C@@H](CCC)C(=O)N[C@@H]([C@@H](C)CC)C1=O` [PP2107], the “NRAS /KRAS” value in test [1] is “A (a compound having 10 or more and less than 20 is denoted as A)”. Moreover, the “HRAS /KRAS” value in test [2] is “A (a compound having 10 or more and less than 20 is denoted as A)”. This compound came in with an IC50 in test [3] of 7.8 nM.
Take `CCO[C@@H]1C[C@H]2C(=O)NC3(CCC3)C(=O)N(C)[C@@H](C3CCCC3)C(=O)N(C)[C@H](C(=O)N(C)CC)CC(=O)N(C)[C@H]3CCCCCc4ccc(cc4)C[C@@H](C(=O)N(C)CC(=O)N[C@@H](CCc4ccc(C(F)(F)F)c(OC)c4)C(=O)N2C1)N1CC/C=C\C[C@@H](C1=O)N(C)C(=O)CN(C)C(=O)[C@H]([C@@H](C)CC)NC3=O` [PP2118]: the “NRAS /KRAS” value in test [1] is “A (a compound having 10 or more and less than 20 is denoted as A)”. In addition, in test [2], the “HRAS /KRAS” value is “B (a compound having 3 or more and less than 10 is denoted as B)”. Further, it took 8.1 nM to reach half-maximal inhibition in test [3] (IC50).
`CCO[C@@H]1C[C@H]2C(=O)NC3(CC(C)(C)C3)C(=O)N(C)[C@@H](C(CC)CC)C(=O)N(C)[C@H](C(=O)N(C)C)CC(=O)N(C)[C@@H](CC3CC3)C(=O)N[C@@H]([C@@H](C)CC)C(=O)N(C)CC(=O)N(C)[C@H]3C/C=C\CCN(C3=O)[C@@H](Cc3ccc(C(F)(F)F)cc3)C(=O)N(C)CC(=O)N[C@@H](CCc3cc(F)c(C(F)(F)F)c(F)c3)C(=O)N2C1` [PP2119]: the “NRAS /KRAS” value in test [1] is “A (a compound having 10 or more and less than 20 is denoted as A)”. The “HRAS /KRAS” value in test [2] was “B (a compound having 3 or more and less than 10 is denoted as B)”. The same compound had an IC50 in test [3] of 8.9 nM.
As to `CCO[C@@H]1C[C@H]2C(=O)NC3(CC(C)(C)C3)C(=O)N(C)[C@@H](C(CC)CC)C(=O)N(C)[C@H](C(=O)N(C)C)CC(=O)N(C)[C@@H](CC3CCC3)C(=O)N[C@@H]([C@@H](C)CC)C(=O)N(C)CC(=O)N(C)[C@H]3C/C=C\CCN(C3=O)[C@@H](Cc3ccc(C)cc3)C(=O)N(C)CC(=O)N[C@@H](CCc3ccc(Cl)c(Cl)c3)C(=O)N2C1` [PP2120], the “NRAS /KRAS” value in test [1] is “AA (a compound having 20 or more is denoted as AA)”. In addition, in test [2], the “HRAS /KRAS” value is “A (a compound having 10 or more and less than 20 is denoted as A)”. The half-inhibitory concentration (IC50) in test [3] is 75.5 nM.
`CCO[C@@H]1C[C@H]2C(=O)NC3(CC(C)(C)C3)C(=O)N(C)[C@@H](C(CC)CC)C(=O)N(C)[C@H](C(=O)N(C)C)CC(=O)N(C)[C@@H](COC)C(=O)N[C@@H]([C@@H](C)CC)C(=O)N(C)CC(=O)N(C)[C@H]3C/C=C\CCN(C3=O)[C@@H](Cc3ccc(C(F)(F)F)cc3)C(=O)N(C)CC(=O)N[C@@H](CCc3cc(F)c(C(F)(F)F)c(F)c3)C(=O)N2C1` [PP2121]: the “NRAS /KRAS” value in test [1] was “AA (a compound having 20 or more is denoted as AA)”. Besides, in test [2], the “HRAS /KRAS” value is “A (a compound having 10 or more and less than 20 is denoted as A)”. Further, in test [3], the IC50 came to 11.4 nM.
As to `CCO[C@@H]1C[C@H]2C(=O)NC3(CC(C)(C)C3)C(=O)N(C)[C@@H](C(CC)CC)C(=O)N(C)[C@H](C(=O)N(C)C)CC(=O)N(C)[C@@H](C(C)C)C(=O)N[C@@H]([C@@H](C)CC)C(=O)N(C)CC(=O)N(C)[C@H]3C/C=C\CCN(C3=O)[C@@H](Cc3ccc(C)cc3)C(=O)N(C)CC(=O)N[C@@H](CCc3ccc(Cl)c(Cl)c3)C(=O)N2C1` [PP2122], in test [1], the “NRAS /KRAS” value is reported as “AA (a compound having 20 or more is denoted as AA)”. Also, the “HRAS /KRAS” value in test [2] was “A (a compound having 10 or more and less than 20 is denoted as A)”. In addition, the IC50 in test [3] stood at 107 nM.
As for `CCO[C@@H]1C[C@H]2C(=O)NC3(CC(C)(C)C3)C(=O)N(C)[C@@H](C(CC)CC)C(=O)N(C)[C@H](C(=O)N3CCCC3)CC(=O)N(C)[C@@H](COC)C(=O)N[C@@H]([C@@H](C)CC)C(=O)N(C)CC(=O)N(C)[C@H]3C/C=C\CCN(C3=O)[C@@H](Cc3ccc(C(F)(F)F)cc3)C(=O)N(C)CC(=O)N[C@@H](CCc3cc(F)c(C(F)(F)F)c(F)c3)C(=O)N2C1` [PP2123], the “NRAS /KRAS” value in test [1] was “A (a compound having 10 or more and less than 20 is denoted as A)”. The “HRAS /KRAS” value in test [2] was “A (a compound having 10 or more and less than 20 is denoted as A)”. The compound also gave an IC50 in test [3] of 24.3 nM.
For `CCO[C@@H]1C[C@H]2C(=O)NC3(CC(C)(C)C3)C(=O)N(C)[C@@H](C(CC)CC)C(=O)N(C)[C@H](C(=O)N(C)C)CC(=O)N(C)[C@@H](CC3CC3)C(=O)N[C@@H]([C@@H](C)CC)C(=O)N(C)CC(=O)N(C)[C@H]3C/C=C\CCN(C3=O)[C@@H](Cc3ccc(C(F)(F)F)cc3)C(=O)N(C)CC(=O)N[C@@H](CCc3ccc(C(F)(F)F)c(Cl)c3)C(=O)N2C1` [PP2124], in test [1], the “NRAS /KRAS” value was “AA (a compound having 20 or more is denoted as AA)”. The “HRAS /KRAS” value in test [2] was “A (a compound having 10 or more and less than 20 is denoted as A)”. Further, half-maximal inhibition in test [3] (IC50) required 18.7 nM.
With `CCC[C@H]1C(=O)N[C@@H]([C@@H](C)CC)C(=O)N(C)CC(=O)N(C)[C@H]2C/C=C\CCN(C2=O)[C@@H](Cc2ccc(C(F)(F)F)cc2)C(=O)N(C)CC(=O)N[C@@H](CCc2cc(F)c(C(F)(F)F)c(F)c2)C(=O)N2C[C@H](OCC)C[C@H]2C(=O)NC2(CC(C)(C)C2)C(=O)N(C)[C@@H](C(CC)CC)C(=O)N(C)[C@H](C(=O)N(C)C)CC(=O)N1C` [PP2125], the “NRAS /KRAS” value in test [1] was “AA (a compound having 20 or more is denoted as AA)”. Besides, the “HRAS /KRAS” value in test [2] was “A (a compound having 10 or more and less than 20 is denoted as A)”. In test [3], this compound displayed an IC50 of 4 nM.
`CCO[C@@H]1C[C@H]2C(=O)NC3(CC(C)(C)C3)C(=O)N(C)[C@@H](C(CC)CC)C(=O)N(C)[C@H](C(=O)N(C)C)CC(=O)N(C)[C@@H](COC)C(=O)N[C@@H]([C@@H](C)CC)C(=O)N(C)CC(=O)N(C)[C@H]3C/C=C\CCN(C3=O)[C@@H](Cc3ccc(C(F)(F)F)cc3)C(=O)N(C)CC(=O)N[C@@H](CCc3ccc(C(F)(F)F)c(Cl)c3)C(=O)N2C1` [PP2126]: the “NRAS /KRAS” value in test [1] is “A (a compound having 10 or more and less than 20 is denoted as A)”. The “HRAS /KRAS” value in test [2] is “B (a compound having 3 or more and less than 10 is denoted as B)”. It took 13.4 nM to reach half-maximal inhibition in test [3] (IC50).
Consider `CCO[C@@H]1C[C@H]2C(=O)NC3(CC(C)(C)C3)C(=O)N(C)[C@@H](C(CC)CC)C(=O)N(C)[C@H](C(=O)N(C)C)CC(=O)N(C)[C@@H](CC(C)C)C(=O)N[C@@H]([C@@H](C)CC)C(=O)N(C)CC(=O)N(C)[C@H]3C/C=C\CCN(C3=O)[C@@H](Cc3ccc(C(F)(F)F)cc3)C(=O)N(C)CC(=O)N[C@@H](CCc3cc(F)c(C(F)(F)F)c(F)c3)C(=O)N2C1` [PP2127], for which, in test [1], the “NRAS /KRAS” value is “AA (a compound having 20 or more is denoted as AA)”. In test [2], the “HRAS /KRAS” value is “A (a compound having 10 or more and less than 20 is denoted as A)”. For the same compound, in test [3], the 50% inhibitory concentration (IC50) turned out to be 12.5 nM.

The term IC50 denotes the concentration that inhibits the measured activity by half. A lower IC50 goes with inhibition by little substance.

(Values after patent publication EP4603105A1, “PHARMACEUTICAL COMPOSITION CONTAINING CYCLIC COMPOUND HAVING SELECTIVE KRAS INHIBITORY EFFECT AGAINST HRAS AND NRAS” (CHUGAI SEIYAKU KABUSHIKI KAISHA, priority 2022, dated 2024).)
